Measured values from PubChem BioAssay AID1845202 (Molecular Pharmacology Branch, DTP, NCI, 2023).
“And” between values parts separate entries of the source, which are not always exact repeats. Identical values can stand only once.

Tested on: DMS 114 tumor spheroids, viability % test/control
Test: Anticancer human tumor DMS 114 cell line growth inhibition;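 also: spheroids exposed to compounds for 7 days before read-out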;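 as to viability, T/C: luminescence used as a proxy for viable cells; 100% = DMSO vehicle control viability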
Conditions: spheroids with HUVEC and MSC; for viability, T/C: stronger effect = lower value
How it was run: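 Complex tumor spheroids combined malignant cells with endothelial cells and mesenchymal stem cells. DNA-damaging drugs and DNA repair inhibitors were tested alone and in combination, at half-log dilutions down from clinical Cmax (top 10 microM if Cmax unknown), 0.25% DMSO final.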

[1] = curve of first compound, second compound 0.003 µM
[2] = second compound 0.003 µM, first compound 0.0316 µM
[3] = second compound 0.003 µM, first compound 0.1 µM
[4] = second compound 0.003 µM, first compound 0.316 µM
[5] = second compound 0.003 µM, first compound 1 µM
[6] = second compound 0.003 µM, first compound 3.16 µM
[7] = second compound 0.003 µM, first compound 10 µM

Compound COc1cc(C)[nH]c(=O)c1CN1CCc2c(Cl)cc(C(OC)C3COC3)c(Cl)c2C1=O (configuration not stated) + CC[C@@]1(O)C(=O)OCc2c1cc1n(c2=O)Cc2cc3c(CN(C)C)c(O)ccc3nc2-1 has an IC50 [1] greater than 10000 nM, an IC50 (curve of first compound, second compound 0.00949 µM) of 1920 nM and an IC50 (curve of first compound, second compound 0.03 µM) of less than 31.6 nM. It also gave an IC50 (curve of first compound, second compound 0.0949 µM) of less than 31.6 nM, an IC50 (curve of first compound, second compound 0.3 µM) of less than 31.6 nM and a viability, T/C [2] of 103%. The viability, T/C [3] was 88.5%, the viability, T/C [4] was 83.4% and the viability, T/C [5] was 77%. For the same compound, the viability, T/C [6] was 66%, the viability, T/C [7] was 61.2% and the viability, T/C (second compound 0.00949 µM, first compound 0.0316 µM) was 88.3%. It also gave a viability, T/C (second compound 0.00949 µM, first compound 0.1 µM) of 74.2%, a viability, T/C (second compound 0.00949 µM, first compound 0.316 µM) of 64.1% and a viability, T/C (second compound 0.00949 µM, first compound 1 µM) of 57.5%. The viability, T/C (second compound 0.00949 µM, first compound 3.16 µM) was 49.3%, the viability, T/C (second compound 0.00949 µM, first compound 10 µM) was 32.1% and the viability, T/C (second compound 0.03 µM, first compound 0.0316 µM) was 39.2%. It also gave a viability, T/C (second compound 0.03 µM, first compound 0.1 µM) of 34%, a viability, T/C (second compound 0.03 µM, first compound 0.316 µM) of 32.1% and a viability, T/C (second compound 0.03 µM, first compound 1 µM) of 30.6%. The viability, T/C (second compound 0.03 µM, first compound 3.16 µM) was 24.4%, the viability, T/C (second compound 0.03 µM, first compound 10 µM) was 18.5% and the viability, T/C (second compound 0.0949 µM, first compound 0.0316 µM) was 16.8%. For the same compound, the viability, T/C (second compound 0.0949 µM, first compound 0.1 µM) was 16.3%, the viability, T/C (second compound 0.0949 µM, first compound 0.316 µM) was 18.4% and the viability, T/C (second compound 0.0949 µM, first compound 1 µM) was 17.1%. The viability, T/C (second compound 0.0949 µM, first compound 3.16 µM) was 15.2%, the viability, T/C (second compound 0.0949 µM, first compound 10 µM) was 12% and the viability, T/C (second compound 0.3 µM, first compound 0.0316 µM) was 10.3%. It also gave a viability, T/C (second compound 0.3 µM, first compound 0.1 µM) of 11.2%, a viability, T/C (second compound 0.3 µM, first compound 0.316 µM) of 10.6% and a viability, T/C (second compound 0.3 µM, first compound 1 µM) of 11.4%. It also gave a viability, T/C (second compound 0.3 µM, first compound 3.16 µM) of 11.1% and a viability, T/C (second compound 0.3 µM, first compound 10 µM) of 10.7%.

With COc1ccc([C@@H](O)c2cc(-c3ncnc4cc(N5CCOCC5)ccc34)c(F)cc2Cl)nn1 + COc1cc2c(cc1O)CCNC21CSC2c3c(OC(C)=O)c(C)c4c(c3C(COC1=O)N1C(O)C3Cc5cc(C)c(OC)c(O)c5C(C21)N3C)OCO4 the IC50 (curve of first compound, second compound 30 pM) was 4790 nM, the IC50 (curve of first compound, second compound 94.9 pM) was 1680 nM and the IC50 (curve of first compound, second compound 0.0003 µM) was less than 31.6 nM. The IC50 (curve of first compound, second compound 0.000949 µM) was less than 31.6 nM, the IC50 [1] was less than 31.6 nM and the viability, T/C (second compound 30 pM, first compound 0.0316 µM) was 113%. For the same compound, the viability, T/C (second compound 30 pM, first compound 0.1 µM) was 99.8%, the viability, T/C (second compound 30 pM, first compound 0.316 µM) was 102% and the viability, T/C (second compound 30 pM, first compound 1 µM) was 96.7%. The viability, T/C (second compound 30 pM, first compound 3.16 µM) was 63.7%, the viability, T/C (second compound 30 pM, first compound 10 µM) was 25.1% and the viability, T/C (second compound 94.9 pM, first compound 0.0316 µM) was 108%. It also gave a viability, T/C (second compound 94.9 pM, first compound 0.1 µM) of 101%, a viability, T/C (second compound 94.9 pM, first compound 0.316 µM) of 92.9% and a viability, T/C (second compound 94.9 pM, first compound 1 µM) of 65.2%. For the same compound, the viability, T/C (second compound 94.9 pM, first compound 3.16 µM) was 31.3%, the viability, T/C (second compound 94.9 pM, first compound 10 µM) was 13.3% and the viability, T/C (second compound 0.0003 µM, first compound 0.0316 µM) was 39.6%. The viability, T/C (second compound 0.0003 µM, first compound 0.1 µM) was 37.6%, the viability, T/C (second compound 0.0003 µM, first compound 0.316 µM) was 35.7% and the viability, T/C (second compound 0.0003 µM, first compound 1 µM) was 13.4%. The viability, T/C (second compound 0.0003 µM, first compound 3.16 µM) was 5.07%, the viability, T/C (second compound 0.0003 µM, first compound 10 µM) was 2.36% and the viability, T/C (second compound 0.000949 µM, first compound 0.0316 µM) was 3.78%. The viability, T/C (second compound 0.000949 µM, first compound 0.1 µM) was 3.32%, the viability, T/C (second compound 0.000949 µM, first compound 0.316 µM) was 1.74% and the viability, T/C (second compound 0.000949 µM, first compound 1 µM) was 0.47%. For the same compound, the viability, T/C (second compound 0.000949 µM, first compound 3.16 µM) was 0.07%, the viability, T/C (second compound 0.000949 µM, first compound 10 µM) was 0.17% and the viability, T/C [2] was 0.25%. It also gave a viability, T/C [3] of 0.28%, a viability, T/C [4] of 0.28% and a viability, T/C [5] of 0.31%. It also gave a viability, T/C [6] of 0.29% and a viability, T/C [7] of 0.36%.

For Cn1ncnc1[C@H]1c2n[nH]c(=O)c3cc(F)cc(c23)N[C@@H]1c1ccc(F)cc1, the viability, T/C (compound 0.00949 µM) was 117% and 110% and 92%, the viability, T/C (compound 0.03 µM) was 94.9% and 113% and 95.8% and the viability, T/C (compound 0.0949 µM) was 91.3% and 103% and 87.2%. For the same compound, the viability, T/C (compound 0.3 µM) was 72.8% and 101% and 65.3%, the viability, T/C (compound 0.949 µM) was 34.5% and 47.5% and 32.3% and the viability, T/C (compound 3 µM) was 9.35% and 15.3% and 10.1%. For the same compound, the IC50 (curve of compound) was 611 nM and 901 nM and 514 nM.
